Assay results from patent US20200038478A1, “POLYPEPTIDE AND COMPOSITION THEREOF FOR TREATING DISEASES OF METABOLIC SYSTEM” (WUHAN GRECTECH CO., LTD., priority 2017, published 2020).
Bridge positions count the residues as written; N and C are the ends. Square brackets hold non-standard residues; d marks the D form. Ends that are not written are not given here. Met(O) = CS(=O)CC[C@H](N)C(=O)O

Experiments:
Format in all cases: in vivo, Kunming white mice
normal mice [1] = assay: Hypoglycemic effect on normal mice after subcutaneous injection (Example 6); details: for Blood glucose level at 15 min after administration / Blood glucose level at 30 min after administration / Blood glucose level prior to administration: 1 mg/mL at 0.05 ml/10 g, single subcutaneous injection on the back; for Blood glucose level prior to administration: baseline
normal mice [2] = assay: Hypoglycemic effect of synthetic polypeptides on normal mice after subcutaneous injection (Example 9); details: 1 mg/mL at 0.05 ml/10 g, single subcutaneous injection on the back
normal mice [3] = assay: Hypoglycemic effect of polypeptides on normal mice after tail vein injection (Example 4); details: 1 mg/mL at 0.05 ml/10 g, single tail vein injection; for Blood glucose level prior to administration: baseline
normal mice [4] = assay: Hypoglycemic effect on normal mice after administration by gavage, with or without glucose (Example 11); details: for Blood glucose level prior to administration: baseline
normal mice [5] = assay: Hypoglycemic effect of the polypeptide on normal mice after tail vein injection (Example 3); details: for Blood glucose level at 15 min after administration / Blood glucose level at 30 min after administration / Blood glucose level prior to administration: single tail vein injection; for Blood glucose level prior to administration: baseline
normal mice [6] = assay: Natural extract vs solid-phase synthetic polypeptide, normal mice, subcutaneous injection (Example 7); details: 1 mg/mL at 0.05 ml/10 g, single subcutaneous injection on the back; for Blood glucose level prior to administration: baseline
normal mice [7] = assay: Polypeptide vs insulin on normal mice after tail vein injection (Example 10)
normal mice [8] = assay: Hypoglycemic effect on normal mice after tail vein, subcutaneous and intramuscular injection (Example 8); details: 1 mg/mL at 0.05 ml/10 g once; for Blood glucose level prior to administration: baseline
[9] = Group B, 1 mg/mL polypeptide in saline at 0.10 ml/10 g
[10] = Group C polypeptide+glucose, 1 mg/mL polypeptide in 10% glucose solution at 0.10 ml/10 g
[11] = Group A high-dose, 1 mg/mL at 0.10 ml/10 g
[12] = Group B medium-dose, 1 mg/mL at 0.05 ml/10 g
[13] = Group C low-dose, 1 mg/mL at 0.025 ml/10 g
[14] = single tail vein injection, polypeptide 2 mg/mL at 0.05 ml/10 g (10 mg/kg), insulin 0.5 U/mL (2.5 U/kg)
[15] = Group B, subcutaneous injection on the back
[16] = Group C, intramuscular injection in the lateral thigh

ASCNGVCSPFEMPPCGSSACRCIPVGLVVGYCRNPSG (disulfide 15-32, 3-20, 7-22) [SEQ ID No. 26]
Blood glucose level at 15 min after administration (normal mice [1]): 5.3 ± 0.4 mmol/L | Blood glucose level at 30 min after administration (normal mice [1]): 4.4 ± 0.3 mmol/L | Blood glucose level prior to administration (normal mice [1]): 7.1 ± 0.5 mmol/L | Blood glucose level at 15 min after administration (normal mice [2]): 5.3 ± 0.4 mmol/L | Blood glucose level at 30 min after administration (normal mice [2]): 4.6 ± 0.3 mmol/L | Blood glucose level at 45 min after administration (normal mice [2]): 3.2 ± 0.2 mmol/L | Blood glucose level at 60 min after administration (normal mice [2]): 2.1 ± 0.2 mmol/L | Blood glucose level prior to administration (normal mice [2]; baseline): 6.8 ± 0.3 mmol/L

ASCNGVCSPFEMoxPPCGTSACRCIPVGLVVGYCRNPSG (ASCNGVCSPFE[Met(O)]PPCGTSACRCIPVGLVVGYCRNPSG; disulfide 15-32, 3-20, 7-22; listed as Pisum sativum) [SEQ ID No. 2]
Blood glucose level at 15 min after administration (normal mice [3]): 6.5 ± 0.2 mmol/L | Blood glucose level at 30 min after administration (normal mice [3]): 4.6 ± 0.3 mmol/L | Blood glucose level prior to administration (normal mice [3]): 7.2 ± 0.3 mmol/L

ASCNGVCSPFEMoxPPCGTSACRCIPVGLVIGYCRNPSG (ASCNGVCSPFE[Met(O)]PPCGTSACRCIPVGLVIGYCRNPSG; disulfide 15-32, 3-20, 7-22; listed as Pisum sativum) [SEQ ID No. 4]
Blood glucose level at 15 min after administration (normal mice [3]): 6.9 ± 0.4 mmol/L | Blood glucose level at 30 min after administration (normal mice [3]): 4.6 ± 0.3 mmol/L | Blood glucose level prior to administration (normal mice [3]): 7.5 ± 0.5 mmol/L

ASCNGVCSPFEMoxPPCGSSACRCIPVGLLIGYCRNPSG (ASCNGVCSPFE[Met(O)]PPCGSSACRCIPVGLLIGYCRNPSG; disulfide 15-32, 3-20, 7-22; listed as Pisum sativum) [SEQ ID No. 6]
Blood glucose level at 15 min after administration (normal mice [3]): 5.6 ± 0.3 mmol/L | Blood glucose level at 30 min after administration (normal mice [3]): 4.2 ± 0.3 mmol/L | Blood glucose level prior to administration (normal mice [3]): 6.6 ± 0.4 mmol/L

ASCNGVCSPFDIPPCGSPLCRCIPVGLVIGKCRNPYG (disulfide 15-32, 3-20, 7-22; listed as Pisum sativum) [SEQ ID No. 10]
Blood glucose level at 15 min after administration (normal mice [4]; [9]): 6.9 ± 0.3 mmol/L | Blood glucose level at 30 min after administration (normal mice [4]; [9]): 6.4 ± 0.2 mmol/L | Blood glucose level at 45 min after administration (normal mice [4]; [9]): 6.1 ± 0.3 mmol/L | Blood glucose level at 60 min after administration (normal mice [4]; [9]): 6.1 ± 0.2 mmol/L | Blood glucose level prior to administration (normal mice [4]; [9]): 6.7 ± 0.6 mmol/L | Blood glucose level at 15 min after administration (normal mice [4]; [10]): 7.1 ± 0.3 mmol/L | Blood glucose level at 30 min after administration (normal mice [4]; [10]): 6.9 ± 0.2 mmol/L | Blood glucose level at 45 min after administration (normal mice [4]; [10]): 6.6 ± 0.3 mmol/L | Blood glucose level at 60 min after administration (normal mice [4]; [10]): 6.2 ± 0.2 mmol/L | Blood glucose level prior to administration (normal mice [4]; [10]): 6.8 ± 0.4 mmol/L

ASCNGVCSPFEMPPCGSSACRCIPVGLLIGYCRNPSG (disulfide 15-32, 3-20, 7-22; listed as Pisum sativum) [SEQ ID No. 5]
Blood glucose level at 15 min after administration (normal mice [3]): 6.3 ± 0.3 mmol/L | Blood glucose level at 30 min after administration (normal mice [3]): 5.3 ± 0.3 mmol/L | Blood glucose level prior to administration (normal mice [3]): 7.1 ± 0.5 mmol/L

ASCNGVCSPFEMPPCGTSACRCIPVGLFIGYCRNPSG (disulfide 15-32, 3-20, 7-22; listed as Pisum sativum) [SEQ ID No. 7]
Blood glucose level at 15 min after administration (normal mice [5]; [11]): 3.3 ± 0.3 mmol/L | Blood glucose level at 30 min after administration (normal mice [5]; [11]): 2.1 ± 0.3 mmol/L | Blood glucose level prior to administration (normal mice [5]; [11]): 7.1 ± 0.5 mmol/L | Blood glucose level at 15 min after administration (normal mice [5]; [12]): 4.3 ± 0.4 mmol/L | Blood glucose level at 30 min after administration (normal mice [5]; [12]): 3.3 ± 0.3 mmol/L | Blood glucose level prior to administration (normal mice [5]; [12]): 7.9 ± 0.6 mmol/L | Blood glucose level at 15 min after administration (normal mice [5]; [13]): 5.7 ± 0.3 mmol/L | Blood glucose level at 30 min after administration (normal mice [5]; [13]): 4.3 ± 0.3 mmol/L | Blood glucose level prior to administration (normal mice [5]; [13]): 6.9 ± 0.5 mmol/L | hypoglycemic activity (conclusion) (normal mice [5]; normal mice, intravenous injection): explicit hypoglycemic activity

ASCNGVCSPFEMPPCGTSACRCIPVGLVVGYCRNPSG [Polypeptide A] (disulfide 15-32, 3-20, 7-22; listed as Pisum sativum)
Blood glucose level at 15 min after administration (normal mice [6]): 5.2 ± 0.4 mmol/L | Blood glucose level at 30 min after administration (normal mice [6]): 4.4 ± 0.5 mmol/L | Blood glucose level at 45 min after administration (normal mice [6]): 3.6 ± 0.3 mmol/L | Blood glucose level at 60 min after administration (normal mice [6]): 2.2 ± 0.2 mmol/L | Blood glucose level prior to administration (normal mice [6]): 6.8 ± 0.5 mmol/L

ISCNGVCSPFDIPPCGSPLCRCIPAGLVIGNCRNPYG (disulfide 15-32, 3-20, 7-22; listed as Pisum sativum) [SEQ ID No. 11]
hypoglycemic effect compared with insulin (normal mice [7]; polypeptide 10 mg/kg vs insulin 2.5 U/kg, tail vein injection): the same hypoglycemic effect on normal mice as insulin | Blood glucose level at 15 min after administration (normal mice [7]; [14]): 4.1 ± 0.3 mmol/L | Blood glucose level at 30 min after administration (normal mice [7]; [14]): 2.8 ± 0.2 mmol/L | Blood glucose level at 45 min after administration (normal mice [7]; [14]): 2.2 ± 0.1 mmol/L | Blood glucose level at 60 min after administration (normal mice [7]; [14]): 2.0 ± 0.1 mmol/L | Blood glucose level prior to administration (normal mice [7]; single tail vein injection, polypeptide 2 mg/mL at 0.05 ml/10 g (10 mg/kg), insulin 0.5 U/mL (2.5 U/kg), baseline): 8.2 ± 0.5 mmol/L

ASCNGVCSPFEMPPCGSSACRCIPVGLVVGYCRHPSG (listed as Pisum sativum) [SEQ ID No. 72, extracted polypeptide with H at position 34, outside general formula (I); raised blood glucose]
Blood glucose level at 15 min after administration (normal mice [1]): 8.91 ± 0.7 mmol/L | Blood glucose level at 30 min after administration (normal mice [1]): 10.4 ± 0.8 mmol/L | Blood glucose level prior to administration (normal mice [1]): 7.3 ± 0.6 mmol/L | hypoglycemic activity (conclusion) (normal mice [1]; normal mice, subcutaneous injection): no hypoglycemic activity

ASCNGVCSPFEMPPCGTSACRCIPVGLVIGYCRNPSG (disulfide 15-32, 3-20, 7-22; listed as Pisum sativum) [SEQ ID No. 3]
Blood glucose level at 15 min after administration (normal mice [8]; Group A, tail vein injection): 5.6 ± 0.3 mmol/L | Blood glucose level at 30 min after administration (normal mice [8]; Group A, tail vein injection): 4.5 ± 0.2 mmol/L | Blood glucose level at 45 min after administration (normal mice [8]; Group A, tail vein injection): 3.2 ± 0.1 mmol/L | Blood glucose level at 60 min after administration (normal mice [8]; Group A, tail vein injection): 2.4 ± 0.2 mmol/L | Blood glucose level prior to administration (normal mice [8]; Group A, tail vein injection): 7.3 ± 0.5 mmol/L | Blood glucose level at 15 min after administration (normal mice [8]; [15]): 5.2 ± 0.2 mmol/L | Blood glucose level at 30 min after administration (normal mice [8]; [15]): 3.5 ± 0.3 mmol/L | Blood glucose level at 45 min after administration (normal mice [8]; [15]): 2.8 ± 0.2 mmol/L | Blood glucose level at 60 min after administration (normal mice [8]; [15]): 2.1 ± 0.1 mmol/L | Blood glucose level prior to administration (normal mice [8]; [15]): 6.2 ± 0.3 mmol/L | Blood glucose level at 15 min after administration (normal mice [8]; [16]): 6.3 ± 0.5 mmol/L | Blood glucose level at 30 min after administration (normal mice [8]; [16]): 4.8 ± 0.4 mmol/L | Blood glucose level at 45 min after administration (normal mice [8]; [16]): 3.5 ± 0.3 mmol/L | Blood glucose level at 60 min after administration (normal mice [8]; [16]): 2.6 ± 0.2 mmol/L | Blood glucose level prior to administration (normal mice [8]; [16]): 8.1 ± 0.7 mmol/L

ASCNGVCSPFEMPPCGTSACRCIPVGLVVGYCRNPSG [Polypeptide B] (disulfide 15-32, 3-20, 7-22; listed as Pisum sativum)
Blood glucose level at 15 min after administration (normal mice [6]): 5.5 ± 0.3 mmol/L | Blood glucose level at 30 min after administration (normal mice [6]): 4.6 ± 0.2 mmol/L | Blood glucose level at 45 min after administration (normal mice [6]): 3.3 ± 0.2 mmol/L | Blood glucose level at 60 min after administration (normal mice [6]): 2.4 ± 0.1 mmol/L | Blood glucose level prior to administration (normal mice [6]): 7.2 ± 0.6 mmol/L
